# Values quoted from earlier work, collected in US20210059959A1, “USE OF CANNABINOIDS IN THE TREATMENT OF MENTAL DISORDERS” (GW Pharma Limited, priority 2015, published 2021).
# Tested on: positive or negative symptoms of schizophrenia
# Settings: placebo-controlled clinical trial; cited from earlier work
structure (smiles),measurement,value
Cc1c(C(=O)NN2CCCCC2)nn(-c2ccc(Cl)cc2Cl)c1-c1ccc(Cl)cc1 [rimonabant],Effect on positive or negative symptoms of schizophrenia,no effect
